Data reported in ChEMBL document CHEMBL2010712, “Design and synthesis of orally available MEK inhibitors with potent in vivo antitumor efficacy” (Bioorg Med Chem Lett, 2012).
pEC50, pIC50: −log10 of the molar value. Activity calls are given as the source filed them. No cut-off for these calls is given here.

Columns and labels:
[1] = molecular target: Dual specificity mitogen-activated protein kinase kinase 1 (Homo sapiens, UniProt Q02750); assay: Inhibition of MEK1-mediated ERK1 phosphorylation using IPTTPITTYFFFK-5FAM-COOH as substrate by fluorescent polarization assay
COLO 205 = assay: Cytotoxicity against human COLO205 cells after 72 hrs by MTS assay; settings: COLO 205, 72 h
A-375 = assay: Cytotoxicity against human A375 cells after 72 hrs by MTS assay; settings: A-375, 72 h
[2] = Half life in human liver microsomes; type: ADME, Microsome
[3] = Half life in rat liver microsomes; type: ADME, Microsome
[4] = molecular target: Tyrosine-protein kinase ABL1 (Homo sapiens) (UniProt P00519); assay: Inhibition of ABL1 at 10 uM
[5] = molecular target: RAC-gamma serine/threonine-protein kinase (Homo sapiens) (UniProt Q9Y243); assay: Inhibition of AKT3 at 10 uM
[6] = molecular target: RAF proto-oncogene serine/threonine-protein kinase (Homo sapiens) (UniProt P04049); assay: Inhibition of c-RAF at 10 uM
[7] = molecular target: Calcium/calmodulin-dependent protein kinase type 1D (Homo sapiens) (UniProt Q8IU85); assay: Inhibition of CAMK1delta at 10 uM
[8] = molecular target: Cyclin-dependent kinase 2/cyclin A (Homo sapiens) (UniProt P24941+P20248+P78396); assay: Inhibition of CDK2/cyclin A at 10 uM; type: protein-complex assay
[9] = molecular target: Hepatocyte growth factor receptor (Homo sapiens) (UniProt P08581); assay: Inhibition of cMET at 10 uM
[10] = molecular target: Proto-oncogene tyrosine-protein kinase Src (Homo sapiens) (UniProt P12931); assay: Inhibition of cSRC at 10 uM
[11] = molecular target: Epidermal growth factor receptor (Homo sapiens) (UniProt P00533); assay: Inhibition of EGFR at 10 uM
[12] = molecular target: Glycogen synthase kinase-3 beta (Homo sapiens) (UniProt P49841); assay: Inhibition of GSK3beta at 10 uM
[13] = molecular target: Insulin receptor (Homo sapiens) (UniProt P06213); assay: Inhibition of IR at 10 uM
[14] = molecular target: T1, Tyrosine-protein kinase JAK3 (Homo sapiens) (UniProt P52333); assay: Inhibition of JAK3 at 10 uM
T1 sequence (whole entry): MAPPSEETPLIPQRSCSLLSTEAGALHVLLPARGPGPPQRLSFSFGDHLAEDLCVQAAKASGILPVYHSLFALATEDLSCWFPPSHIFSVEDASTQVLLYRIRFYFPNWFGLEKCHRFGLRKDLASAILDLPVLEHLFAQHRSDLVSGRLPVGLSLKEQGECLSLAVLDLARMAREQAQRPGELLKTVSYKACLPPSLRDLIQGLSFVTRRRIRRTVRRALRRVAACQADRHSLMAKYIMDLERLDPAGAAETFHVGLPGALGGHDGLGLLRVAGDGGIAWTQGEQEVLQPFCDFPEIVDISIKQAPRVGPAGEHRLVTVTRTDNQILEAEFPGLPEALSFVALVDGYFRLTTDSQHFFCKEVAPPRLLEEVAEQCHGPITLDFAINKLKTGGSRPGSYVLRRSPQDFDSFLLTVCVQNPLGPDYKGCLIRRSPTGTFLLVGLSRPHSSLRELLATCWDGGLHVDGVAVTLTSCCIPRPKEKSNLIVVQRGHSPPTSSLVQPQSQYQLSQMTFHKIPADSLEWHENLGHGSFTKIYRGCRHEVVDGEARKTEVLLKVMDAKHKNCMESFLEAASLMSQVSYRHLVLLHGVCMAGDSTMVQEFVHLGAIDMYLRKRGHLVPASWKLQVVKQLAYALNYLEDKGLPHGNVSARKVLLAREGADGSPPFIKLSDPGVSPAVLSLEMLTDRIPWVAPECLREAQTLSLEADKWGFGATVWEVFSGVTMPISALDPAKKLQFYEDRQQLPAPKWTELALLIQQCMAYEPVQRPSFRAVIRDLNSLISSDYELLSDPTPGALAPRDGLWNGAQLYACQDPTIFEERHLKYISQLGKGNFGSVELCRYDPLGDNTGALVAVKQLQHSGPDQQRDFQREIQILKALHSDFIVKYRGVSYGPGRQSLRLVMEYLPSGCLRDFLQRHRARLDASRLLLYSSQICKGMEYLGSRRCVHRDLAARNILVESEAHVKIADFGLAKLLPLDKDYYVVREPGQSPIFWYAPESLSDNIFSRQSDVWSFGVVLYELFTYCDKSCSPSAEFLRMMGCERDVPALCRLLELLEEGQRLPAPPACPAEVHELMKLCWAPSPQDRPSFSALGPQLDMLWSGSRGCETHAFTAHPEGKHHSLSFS

[15] = molecular target: Mitogen-activated protein kinase 14 (Homo sapiens) (UniProt Q16539); assay: Inhibition of p38alpha at 10 uM
[16] = molecular target: Platelet-derived growth factor receptor beta (Homo sapiens) (UniProt P09619); assay: Inhibition of PDGFRbeta at 10 uM
[17] = molecular target: Protein kinase C alpha type (Homo sapiens) (UniProt P17252); assay: Inhibition of PKCalpha at 10 uM
[18] = molecular target: Serine/threonine-protein kinase PLK3 (Homo sapiens) (UniProt Q9H4B4); assay: Inhibition of PLK3 at 10 uM
[19] = molecular target: Tyrosine-protein kinase SYK (Homo sapiens) (UniProt P43405); assay: Inhibition of Syk at 10 uM
[20] = molecular target: Angiopoietin-1 receptor (Homo sapiens) (UniProt Q02763); assay: Inhibition of Tie2 at 10 uM
[21] = Inhibition of cytochrome P450 at 10 uM; type: ADME
[22] = molecular target: 3-phosphoinositide-dependent protein kinase 1 (Homo sapiens) (UniProt O15530); assay: Inhibition of PDK1 at 10 uM
[23] = Clearance in rat at 1 mg/kg, iv and 5 mg/kg, po; type: ADME, organism-based; settings: in vivo
Rattus norvegicus = assay: Dose normalized AUC in rat at 1 mg/kg, iv and 5 mg/kg, po; type: ADME, organism-based; settings: in vivo
[24] = Volume of distribution at steady state in rat at 1 mg/kg, iv and 5 mg/kg, po; type: ADME, organism-based; settings: in vivo, read-out: Vdss
[25] = Oral bioavailability in rat at 5 mg/kg; type: ADME, organism-based; settings: in vivo

Sequence of Dual specificity mitogen-activated protein kinase kinase 1 (Q02750 whole entry): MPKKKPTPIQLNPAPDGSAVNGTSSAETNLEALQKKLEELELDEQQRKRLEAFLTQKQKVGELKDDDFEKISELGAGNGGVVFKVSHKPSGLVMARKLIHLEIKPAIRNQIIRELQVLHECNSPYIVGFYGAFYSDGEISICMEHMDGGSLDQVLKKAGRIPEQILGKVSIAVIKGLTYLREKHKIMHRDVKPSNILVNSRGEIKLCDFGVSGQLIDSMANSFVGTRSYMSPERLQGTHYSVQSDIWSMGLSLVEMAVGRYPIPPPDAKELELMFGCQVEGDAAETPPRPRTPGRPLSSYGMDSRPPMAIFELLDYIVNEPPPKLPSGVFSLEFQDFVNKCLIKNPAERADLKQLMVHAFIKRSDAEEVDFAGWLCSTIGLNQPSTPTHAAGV
Sequence of Mitogen-activated protein kinase 14 (Homo sapiens) (Q16539 whole entry): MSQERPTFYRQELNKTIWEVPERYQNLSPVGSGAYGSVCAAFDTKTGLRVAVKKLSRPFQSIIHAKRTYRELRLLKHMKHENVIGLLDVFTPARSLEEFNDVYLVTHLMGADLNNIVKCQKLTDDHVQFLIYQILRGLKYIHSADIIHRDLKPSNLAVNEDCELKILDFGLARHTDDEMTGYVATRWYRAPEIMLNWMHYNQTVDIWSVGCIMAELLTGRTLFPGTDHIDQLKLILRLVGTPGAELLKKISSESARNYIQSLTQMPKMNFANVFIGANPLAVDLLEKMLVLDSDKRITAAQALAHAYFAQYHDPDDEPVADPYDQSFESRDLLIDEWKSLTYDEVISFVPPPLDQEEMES
Sequence of 3-phosphoinositide-dependent protein kinase 1 (Homo sapiens) (O15530 whole entry, looked up): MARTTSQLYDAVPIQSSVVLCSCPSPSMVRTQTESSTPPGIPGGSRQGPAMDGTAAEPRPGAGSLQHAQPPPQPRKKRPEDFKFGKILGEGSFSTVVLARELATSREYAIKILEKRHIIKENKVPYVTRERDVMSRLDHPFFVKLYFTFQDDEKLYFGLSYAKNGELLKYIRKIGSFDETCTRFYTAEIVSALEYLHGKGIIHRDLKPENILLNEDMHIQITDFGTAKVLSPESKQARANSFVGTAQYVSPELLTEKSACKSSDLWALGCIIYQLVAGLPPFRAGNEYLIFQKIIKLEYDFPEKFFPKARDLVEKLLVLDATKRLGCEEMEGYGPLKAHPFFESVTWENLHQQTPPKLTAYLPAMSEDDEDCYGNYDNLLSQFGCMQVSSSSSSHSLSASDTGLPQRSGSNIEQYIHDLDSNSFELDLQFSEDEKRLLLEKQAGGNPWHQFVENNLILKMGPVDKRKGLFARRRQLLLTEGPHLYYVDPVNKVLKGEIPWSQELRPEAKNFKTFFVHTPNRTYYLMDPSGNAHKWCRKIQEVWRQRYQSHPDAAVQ
Sequence of Tyrosine-protein kinase ABL1 (Homo sapiens) (P00519 whole entry): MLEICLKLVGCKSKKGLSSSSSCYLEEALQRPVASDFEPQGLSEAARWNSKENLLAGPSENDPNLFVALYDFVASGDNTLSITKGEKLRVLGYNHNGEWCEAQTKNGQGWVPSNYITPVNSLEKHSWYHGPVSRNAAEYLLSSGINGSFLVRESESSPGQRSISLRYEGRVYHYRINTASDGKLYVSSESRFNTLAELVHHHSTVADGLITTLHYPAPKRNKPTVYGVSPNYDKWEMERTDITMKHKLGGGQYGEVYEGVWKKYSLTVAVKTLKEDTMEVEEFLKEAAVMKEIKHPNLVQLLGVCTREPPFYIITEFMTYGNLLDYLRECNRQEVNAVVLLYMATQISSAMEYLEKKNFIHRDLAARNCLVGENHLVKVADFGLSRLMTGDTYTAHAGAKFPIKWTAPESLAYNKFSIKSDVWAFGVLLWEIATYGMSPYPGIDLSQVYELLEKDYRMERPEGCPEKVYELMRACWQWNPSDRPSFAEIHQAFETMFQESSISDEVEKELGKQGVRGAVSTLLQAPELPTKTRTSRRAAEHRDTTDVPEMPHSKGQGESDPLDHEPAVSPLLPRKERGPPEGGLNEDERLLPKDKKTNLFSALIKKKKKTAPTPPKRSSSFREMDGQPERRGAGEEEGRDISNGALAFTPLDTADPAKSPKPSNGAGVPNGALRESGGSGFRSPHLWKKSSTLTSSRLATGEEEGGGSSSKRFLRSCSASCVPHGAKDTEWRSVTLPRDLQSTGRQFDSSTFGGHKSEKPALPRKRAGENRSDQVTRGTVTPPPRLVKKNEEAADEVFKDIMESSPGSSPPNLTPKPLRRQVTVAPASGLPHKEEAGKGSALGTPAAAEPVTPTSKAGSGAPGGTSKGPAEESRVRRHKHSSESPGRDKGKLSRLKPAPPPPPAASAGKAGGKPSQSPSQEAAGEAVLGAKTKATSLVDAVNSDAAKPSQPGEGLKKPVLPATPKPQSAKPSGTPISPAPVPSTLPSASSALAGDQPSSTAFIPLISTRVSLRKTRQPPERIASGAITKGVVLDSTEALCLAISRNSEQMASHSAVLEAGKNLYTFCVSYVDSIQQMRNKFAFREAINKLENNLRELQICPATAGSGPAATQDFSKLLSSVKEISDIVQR
Sequence of RAF proto-oncogene serine/threonine-protein kinase (Homo sapiens) (P04049 whole entry): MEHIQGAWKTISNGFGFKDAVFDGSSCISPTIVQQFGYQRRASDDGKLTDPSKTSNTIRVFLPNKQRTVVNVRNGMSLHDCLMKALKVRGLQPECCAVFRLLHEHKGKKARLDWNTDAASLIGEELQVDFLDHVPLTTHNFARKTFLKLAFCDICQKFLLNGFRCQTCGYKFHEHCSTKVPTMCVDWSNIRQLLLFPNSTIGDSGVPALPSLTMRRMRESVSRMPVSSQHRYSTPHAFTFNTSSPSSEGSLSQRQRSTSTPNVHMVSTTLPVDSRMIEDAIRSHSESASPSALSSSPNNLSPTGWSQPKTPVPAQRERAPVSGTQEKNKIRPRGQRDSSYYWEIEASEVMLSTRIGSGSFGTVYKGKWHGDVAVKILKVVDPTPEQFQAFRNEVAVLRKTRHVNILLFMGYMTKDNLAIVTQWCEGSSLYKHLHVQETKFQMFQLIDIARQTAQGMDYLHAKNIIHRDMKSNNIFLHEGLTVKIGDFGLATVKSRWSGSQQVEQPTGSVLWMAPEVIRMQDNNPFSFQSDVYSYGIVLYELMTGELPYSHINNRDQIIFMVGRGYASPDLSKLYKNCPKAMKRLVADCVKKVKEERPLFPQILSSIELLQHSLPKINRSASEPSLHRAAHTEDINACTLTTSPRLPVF
Sequence of Platelet-derived growth factor receptor beta (Homo sapiens) (P09619 whole entry): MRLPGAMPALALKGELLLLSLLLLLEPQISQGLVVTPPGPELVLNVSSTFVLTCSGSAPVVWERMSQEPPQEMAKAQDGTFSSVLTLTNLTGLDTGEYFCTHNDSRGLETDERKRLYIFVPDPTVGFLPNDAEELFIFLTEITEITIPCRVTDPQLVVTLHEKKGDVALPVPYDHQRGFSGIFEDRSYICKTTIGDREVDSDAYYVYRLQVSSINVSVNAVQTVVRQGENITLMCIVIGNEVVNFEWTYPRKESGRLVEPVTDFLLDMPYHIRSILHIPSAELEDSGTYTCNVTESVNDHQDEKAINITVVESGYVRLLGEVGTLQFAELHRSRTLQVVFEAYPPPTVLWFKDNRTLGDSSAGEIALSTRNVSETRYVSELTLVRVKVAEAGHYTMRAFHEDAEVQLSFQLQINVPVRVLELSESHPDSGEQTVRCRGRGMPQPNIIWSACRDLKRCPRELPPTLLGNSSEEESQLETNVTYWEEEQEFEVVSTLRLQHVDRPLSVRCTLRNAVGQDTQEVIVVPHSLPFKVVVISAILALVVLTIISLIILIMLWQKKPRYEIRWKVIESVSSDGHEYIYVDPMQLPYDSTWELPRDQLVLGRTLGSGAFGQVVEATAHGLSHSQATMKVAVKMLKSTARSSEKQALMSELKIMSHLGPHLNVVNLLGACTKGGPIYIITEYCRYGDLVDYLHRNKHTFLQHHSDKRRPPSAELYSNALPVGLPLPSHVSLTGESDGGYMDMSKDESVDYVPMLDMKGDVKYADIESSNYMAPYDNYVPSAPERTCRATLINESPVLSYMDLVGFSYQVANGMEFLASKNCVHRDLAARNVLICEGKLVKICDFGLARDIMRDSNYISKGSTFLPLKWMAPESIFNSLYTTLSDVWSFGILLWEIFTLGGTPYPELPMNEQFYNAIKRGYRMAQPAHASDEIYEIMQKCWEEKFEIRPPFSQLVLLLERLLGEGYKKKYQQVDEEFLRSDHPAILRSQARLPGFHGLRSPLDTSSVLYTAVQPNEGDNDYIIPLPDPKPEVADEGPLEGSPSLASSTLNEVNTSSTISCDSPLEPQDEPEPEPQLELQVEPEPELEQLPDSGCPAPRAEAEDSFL

O=C(NOC[C@@H](O)CO)c1c(Nc2ccc(I)cc2F)c(F)c(=O)n2c1CCC2
pIC50 [1]: 7.03 | pEC50 (COLO 205): 7.36 | pEC50 (A-375): 6.86 | half-life [2]: > 3.33 h | half-life [3]: > 3.33 h | inhibition [4]: inactive | inhibition [5]: inactive | inhibition [6]: inactive | inhibition [7]: inactive | inhibition [8]: inactive | inhibition [9]: inactive | inhibition [10]: inactive | inhibition [11]: inactive | inhibition [12]: inactive | inhibition [13]: inactive | inhibition [14]: inactive | inhibition [15]: inactive | inhibition [16]: inactive | inhibition [17]: inactive | inhibition [18]: inactive | inhibition [19]: inactive | inhibition [20]: inactive | inhibition (INH) [21]: Not Active | inhibition [22]: inactive

Cn1c(Nc2ccc(I)cc2F)c(C(=O)NOC[C@@H](O)CO)c2c1C(=O)CC2
pIC50 [1]: 7.96 | pEC50 (COLO 205): 8.30 | pEC50 (A-375): 8.15 | half-life [2]: 1.07 h | half-life [3]: 0.9 h

Cn1c(Nc2ccc(Br)cc2F)c(C(=O)NOC[C@@H](O)CO)c2c1C(=O)CCC2
pIC50 [1]: 7.12 | pEC50 (COLO 205): 7.28 | pEC50 (A-375): 7.12 | half-life [2]: 1.27 h | half-life [3]: 1.17 h

C#Cc1ccc(Nc2c(C(=O)NOCCO)c3c(n2C)C(=O)CC3)c(F)c1
pIC50 [1]: 7.44 | pEC50 (COLO 205): 7.77 | pEC50 (A-375): 7.47 | half-life [2]: 1.78 h | half-life [3]: 2.5 h | clearance [23]: 15.6 mL/min/kg | AUC/dose (Rattus norvegicus): 512 ng·h/mL/mg/kg | Vd [24]: 1.19 L/kg | bioavailability [25]: 51% | inhibition [4]: inactive | inhibition [5]: inactive | inhibition [6]: inactive | inhibition [7]: inactive | inhibition [8]: inactive | inhibition [9]: inactive | inhibition [10]: inactive | inhibition [11]: inactive | inhibition [12]: inactive | inhibition [13]: inactive | inhibition [14]: inactive | inhibition [15]: inactive | inhibition [16]: inactive | inhibition [17]: inactive | inhibition [18]: inactive | inhibition [19]: inactive | inhibition [20]: inactive | inhibition (INH) [21]: Not Active | inhibition [22]: inactive

C#Cc1ccc(Nc2c(C(=O)NOCCO)c3n(c(=O)c2F)CCC3)c(F)c1
pIC50 [1]: 7.16 | pEC50 (COLO 205): 7.92 | pEC50 (A-375): 7.48 | half-life [2]: 2.13 h | half-life [3]: > 3.33 h

Cn1c(Nc2ccc(I)cc2F)c(C(=O)NOCCO)c2c1C(=O)CCC2
pIC50 [1]: 7.85 | pEC50 (COLO 205): 9.00 | pEC50 (A-375): 9.00 | half-life [2]: 0.0617 h | half-life [3]: 0.0917 h

Cn1c(Nc2ccc(Br)cc2F)c(C(=O)NOC[C@H](O)CO)c2c1C(=O)CCC2
pIC50 [1]: 7.28 | pEC50 (COLO 205): 7.24 | pEC50 (A-375): 7.14 | half-life [2]: 1.57 h | half-life [3]: 1.42 h

Cn1c(Nc2ccc(I)cc2F)c(C(=O)NOCCO)c2c1C(=O)CC2
pEC50 (COLO 205): 8.70 | pEC50 (A-375): 8.40 | half-life [2]: 0.167 h | half-life [3]: 0.233 h

O=C(NOCCO)c1c(Nc2ccc(I)cc2F)c(Cl)c(=O)n2c1CCC2
pIC50 [1]: 6.96 | pEC50 (COLO 205): 8.52 | pEC50 (A-375): 8.30 | half-life [2]: 0.783 h | half-life [3]: 0.9 h

Cn1c(Nc2ccc(Br)cc2F)c(C(=O)NOCCO)c2c1C(=O)CCC2
pIC50 [1]: 7.74 | pEC50 (COLO 205): 7.47 | pEC50 (A-375): 7.51 | half-life [2]: 0.417 h | half-life [3]: 0.333 h

O=C(NOCCO)c1c(Nc2ccc(I)cc2F)c(F)c(=O)n2c1CCCC2
pIC50 [1]: 7.24 | pEC50 (COLO 205): 7.92 | pEC50 (A-375): 7.52 | half-life [2]: 1.85 h | half-life [3]: 0.683 h

Cn1c(Nc2ccc(I)cc2F)c(C(=O)NOC[C@@H](O)CO)c2c1C(=O)CCC2
pIC50 [1]: 7.77 | pEC50 (COLO 205): 8.70 | pEC50 (A-375): 8.60 | half-life [2]: 0.367 h | half-life [3]: 0.6 h

Cn1c(Nc2ccc(I)cc2F)c(C(=O)NOC[C@H](O)CO)c2c1C(=O)CC2
pIC50 [1]: 7.27 | pEC50 (COLO 205): 8.05 | pEC50 (A-375): 7.89 | half-life [2]: 1.43 h | half-life [3]: 0.9 h

CC(=O)c1cc(C(=O)NOCCO)c(Nc2ccc(I)cc2F)n1C
pEC50 (COLO 205): 7.92 | pEC50 (A-375): 7.85 | AUC/dose (Rattus norvegicus): 144 ng·h/mL/mg/kg

O=C(NOC[C@H](O)CO)c1c(Nc2ccc(I)cc2F)c(F)c(=O)n2c1CCC2
pIC50 [1]: 7.41 | pEC50 (COLO 205): 7.57 | pEC50 (A-375): 7.16 | half-life [2]: > 3.33 h | half-life [3]: > 3.33 h

C#Cc1ccc(Nc2c(C(=O)NOC[C@H](O)CO)c3c(n2C)C(=O)CCC3)c(F)c1
pIC50 [1]: 7.39 | pEC50 (COLO 205): 7.21 | pEC50 (A-375): 7.14 | half-life [2]: > 3.33 h | half-life [3]: > 3.33 h

O=C(NOCCO)c1c(Nc2ccc(I)cc2F)cc(=O)n2c1CCC2
pEC50 (COLO 205): 8.30 | pEC50 (A-375): 7.89 | half-life [2]: 2.23 h | half-life [3]: 1.03 h
